Experimental findings from ChEMBL document CHEMBL1201862, “PubChem BioAssay data set” (2004) are described below.

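Cells were grown in 96-well plates and exposed to each compound for 48 hours at five concentrations; endpoints were interpolated linearly between bracketing concentrations, or set to the highest concentration if not reached. Abbreviation: GI50, concentration required for 50% inhibition of growth.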 Activity calls are given as the source filed them. Rule as the data show it: active = GI50 up to about 1.1 µM and inactive = higher.

What all share (test): DTP human tumour cell line panel, 48 h
Experiment [1] has as its system 786-0.
The subject of experiment [2] is SF-539.
For experiment [3], the system named is Malme-3M.
Experiment [4] deals with MDA-MB-231.
Experiment [5] deals with U-251.
The subject of experiment [6] is A549.
The test system of experiment [7] is RPMI-8226.
In experiment [8] the test system is OVCAR-4.
Experiment [9] deals with EKVX.
In experiment [10] the test system is MOLT-4.
The test system of experiment [11] is PC-3.
For experiment [12], the system named is SNB-19.
The test system of experiment [13] is TK-10.
The test system of experiment [14] is SF-295.
Experiment [15] relates to DU-145.
The subject of experiment [16] is HT-29.
The test system of experiment [17] is HL-60.
Experiment [18] deals with SF-268.
The subject of experiment [19] is SNB-75.

Turning to `Nc1nc(NNc2cccc(F)c2)cc(=O)[nH]1`, the GI50 was 18.8 µM (inactive) in [1]; > 100 µM (inactive) in experiment [2]; 74.8 µM (inactive) in experiment [3]; 42.2 µM (inactive) in [4]; 20.7 µM (inactive) in experiment [5]; 29.6 µM (inactive) in experiment [6]. Moreover, the GI50 is 32.2 µM (inactive) in experiment [7]; 51.6 µM (inactive) in experiment [8]; > 100 µM (inactive) in [9]; 27.7 µM (inactive) in experiment [10]; 25.2 µM (inactive) in experiment [11]; 65.2 µM (inactive) in experiment [12]. Further, the GI50 in experiment [13] was > 100 µM (inactive); in experiment [14] it was 33.3 µM (inactive); in experiment [15], 81.3 µM (inactive); in experiment [16], 22.5 µM (inactive); in experiment [17] it was 23.1 µM (inactive).
As to `C[C@@H]1OC(=O)C[C@H]2CC(=O)N(CCC3CN(S(=O)(=O)C(F)(F)F)c4ccc(Cc5ccc6c(c5)C(CCN5C[C@H]7[C@@H](CC(=O)O[C@H]7C)CC5=O)CN6S(=O)(=O)C(F)(F)F)cc43)C[C@@H]21` (some centres not stated), the GI50 in experiment [1] was > 100 µM (inactive); in experiment [2] it was < 0.01 µM (active); in experiment [3], > 100 µM (inactive); in [4], > 100 µM (inactive); in [5], > 100 µM (inactive); in experiment [6], > 100 µM (inactive). Also, the GI50 in [7], in experiment [8], in experiment [9], in experiment [10], in experiment [11] and in experiment [18] was > 100 µM (inactive) throughout. Besides, the GI50 in experiment [12], in experiment [13], in experiment [14], in experiment [15] and in [19] was > 100 µM (inactive) throughout.
`N#Cc1nc(C(=O)c2ccccc2)oc1N`: the GI50 in experiment [1], in experiment [4], in experiment [5], in [6], in experiment [7] and in experiment [8] was > 100 µM (inactive) throughout. Further, the GI50 in experiment [9] was 65.5 µM (inactive); in [10], > 100 µM (inactive); in experiment [11] it was > 100 µM (inactive); in [18], > 100 µM (inactive); in experiment [12], > 100 µM (inactive); in experiment [13], > 100 µM (inactive). The GI50 in experiment [15] is > 100 µM (inactive); in experiment [16], > 100 µM (inactive); in experiment [17], > 100 µM (inactive); in experiment [19], 0.052 µM (active).
Regarding `NC(=O)c1ccc(NS(=O)(=O)c2ccc(N)cc2)nc1`, the GI50 in [1], in [3], in experiment [4], in [5], in experiment [7] and in experiment [8] was > 100 µM (inactive) each time. The GI50 in experiment [9], in [10], in experiment [11], in experiment [18], in [12] and in experiment [13] was > 100 µM (inactive) each time. Also, the GI50 in experiment [14], in experiment [15], in experiment [16], in [17] and in experiment [19] was > 100 µM (inactive) in each case.

Broadly, the GI50 is the concentration that inhibits growth by half.
